Data taken from patent US7220784B2, “Substituted stilbenes and their reactions” (priority 2000, dated 2007).
Values joined by “and” are separate entries in the source; they are usually repeats but may differ in a detail not shown here. Equal entries are not always repeated. Where two headings read alike, the source gives them in different places.

Experiments:
K562 = K562 cell cycle analysis; type: cell-based, human
[1] = background; cited from earlier work
[2] = system: P388 murine leukaemia cell line; assay: Cytotoxicity/growth inhibition assay (MTT), P388; type: cell-based
In short: (§1)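 Growth inhibition of P388 murine and K562 human leukaemia cells measured by MTT assay.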

tubulin = system: T1, tubulin; assay: Inhibition of tubulin assembly; type: biochemical; conditions: concentration required to reduce assembly of tubulin by 50%
T1 construct: other: concentration required to reduce assembly of tubulin by 50%
Procedure: (§2) The following assays (1–5) were carried out as described in our paper (Woods, et al, British Journal of Cancer, 71, 705–711 (1995)). In addition to the cell lines described in this paper, other established human cell lines (K562, HUVEC, H460, BE, H529, and HT29) were used in the cytotoxicity/growth inhibition assay. • (1) Inhibition of tubulin assembly. The figure quoted is the concentration required to reduce assembly of tubulin by 50%. Tubulin assembly is monitored by light scatter/absorption at 350 nm.

A2780 = assay: Cytotoxicity/growth inhibition assay (MTT), A2780; type: cell-based
Procedure: as §2
(§3) (2) Competition for the colchicine binding site on tubulin. The figure quoted represents the % of ^3H-colchicine bound following co-incubation of test compound and ^3H-cochicine with isolated tubulin. Where ester pro-drugs were used the experiments were carried out in the presence and absence of porcine liver esterase. • (3) Cytotoxicity/growth inhibition assay. This was carried out by the MTT assay. • (4) Permeability (shape-change) assay in endothelial cells. This was carried out using a method based on that of Watts et al. (Anticancer Res., 17, 71–75, (1997)). This involved the diffusion of a fluorescently labelled dextran through a barrier of endothelial cells (HUVEC) grown to confluence on a porous membrane. The effect of agents to alter the shape of these cells results in an increase in the permeability of the cells to the dye. The figure represents the increase in permeability over control cultures when drug is added (30 minutes, 1 mM.). • (5) Experiments to study the anti-vascular effects of these agents were carried out as described previously by our group. (Zhao et al, European Journal of Nuclear Medicine, 26, 231–238 (1999)). The anti-vascular effects of the agents were monitored by either positron emission tomography (PET) or by histologogical examination following treatment of mice bearing T50:80 murine breast tumours, or H460 human lung tumours. • (6) Anti-tumour efficacy of agents was determined in xenografts of H460 human lung cancer. Animals (n=5) were trated either with 5 daily injections and tumour size measured with time following treatment. • (7) The pharmacokinetic profile of agents was determined in mice following injection with drug. Blood was taken at various times following treatment and analysed by HPLC with UV detection. The HPLC conditions were isocratic using a 5 micron C18 BDS column (150×4.6) ad eluting with 75% MeOH in water with a detection wavelength of 290 nm. […] (AND(P)H:quinone oxidoreductace, EC 1.6.99.2). DT-diaphorase is an enzyme over-expressed in a number of human tumours. […] This two-electron reducing enzyme can be used to selectively activate prodrugs within cancers which over-express the enzyme.

[3] = system: colchicine binding site on tubulin; assay: Competition for the colchicine binding site on tubulin
[4] = system: H460 human lung cell line; assay: Cytotoxicity/growth inhibition assay (MTT), H460; type: cell-based; conditions: Homo sapiens, NCI-H460
Procedure: as §2, §3

[5] = system: H460 human lung xenograft; assay: Tumour damage in H460 human lung xenograft grown subcutaneously; type: in vivo; conditions: 0.75×MTD, i.p., twenty four hours following injection
Procedure: The effect of compounds 97–64H and 97–96 (quinone compound) was tested on H460 human lung xenograft grown subcutaneously by injecting equitoxic doses of the compounds (0.75×MTD).

[6] = system: diaphorase null H596 cell line; assay: Cytotoxicity/growth inhibition assay (MTT), H596; type: cell-based; conditions: for IC50: Homo sapiens, NCI-H596; for H596/H460: ratio of IC50, diaphorase null H596 over H460
Procedure: as §2
(2) Competition for the colchicine binding site on tubulin. The figure quoted represents the % of ^3H-colchicine bound following co-incubation of test compound and ^3H-cochicine with isolated tubulin. Where ester pro-drugs were used the experiments were carried out in the presence and absence of porcine liver esterase. • (3) Cytotoxicity/growth inhibition assay. This was carried out by the MTT assay. • (4) Permeability (shape-change) assay in endothelial cells. This was carried out using a method based on that of Watts et al. (Anticancer Res., 17, 71–75, (1997)). This involved the diffusion of a fluorescently labelled dextran through a barrier of endothelial cells (HUVEC) grown to confluence on a porous membrane. The effect of agents to alter the shape of these cells results in an increase in the permeability of the cells to the dye. The figure represents the increase in permeability over control cultures when drug is added (30 minutes, 1 mM.). • (5) Experiments to study the anti-vascular effects of these agents were carried out as described previously by our group. (Zhao et al, European Journal of Nuclear Medicine, 26, 231–238 (1999)). The anti-vascular effects of the agents were monitored by either positron emission tomography (PET) or by histologogical examination following treatment of mice bearing T50:80 murine breast tumours, or H460 human lung tumours. • (6) Anti-tumour efficacy of agents was determined in xenografts of H460 human lung cancer. Animals (n=5) were trated either with 5 daily injections and tumour size measured with time following treatment. • (7) The pharmacokinetic profile of agents was determined in mice following injection with drug. Blood was taken at various times following treatment and analysed by HPLC with UV detection. The HPLC conditions were isocratic using a 5 micron C18 BDS column (150×4.6) ad eluting with 75% MeOH in water with a detection wavelength of 290 nm. The retention time of 6.6 mins for 97–64H. • (8) Activation of quinone prodrugs by DT-diaphorase. (AND(P)H:quinone oxidoreductace, EC 1.6.99.2). DT-diaphorase is an enzyme over-expressed in a number of human tumours. We have recently shown this enzyme to be highly expressed in the endothelial cells of blood vessels. This two-electron reducing enzyme can be used to selectively activate prodrugs within cancers which over-express the enzyme. We have therefore synthesised quinone pro-drugs (97–96, 98–40, 98–23, 98–33, 98–24) which, upon reduction by the enzyme, produces an agent (a hydroquinone stilbene) which is cytotoxic.
A series of prodrugs capable of being activated by DT-diaphorase, an enzyme over-expressed in a wide range of human cancers and in endothelial cells of the vasculature were synthesised. The rationale for this is that these agents will be activated in situ by the tumours over-expressing the enzyme, thus giving rise to a high local concentration of active drug. This confers selectivity to this agent. These quinone prodrugs (97–96 and 98–23) were tested for their ability to act as substrates for DT-diaphorase. […] This agent may therefore have a role in the treatment of tumours that over-express DT-diaphorase. Similarly, these agents maybe selectively activated in the endothelial cells of the vasculature, thereby conferring a selective anti-vascular effect.

[7] = system: H460 human lung cancer xenografts; assay: Anti-tumour efficacy in xenografts of H460 human lung cancer; type: in vivo, mice; conditions: H460 human lung cancer xenograft
Procedure: (§4) (2) Competition for the colchicine binding site on tubulin. The figure quoted represents the % of ^3H-colchicine bound following co-incubation of test compound and ^3H-cochicine with isolated tubulin. Where ester pro-drugs were used the experiments were carried out in the presence and absence of porcine liver esterase. • (3) Cytotoxicity/growth inhibition assay. This was carried out by the MTT assay. • (4) Permeability (shape-change) assay in endothelial cells. This was carried out using a method based on that of Watts et al. (Anticancer Res., 17, 71–75, (1997)). This involved the diffusion of a fluorescently labelled dextran through a barrier of endothelial cells (HUVEC) grown to confluence on a porous membrane. […] The anti-vascular effects of the agents were monitored by either positron emission tomography (PET) or by histologogical examination following treatment of mice bearing T50:80 murine breast tumours, or H460 human lung tumours. • (6) Anti-tumour efficacy of agents was determined in xenografts of H460 human lung cancer. Animals (n=5) were trated either with 5 daily injections and tumour size measured with time following treatment. • (7) The pharmacokinetic profile of agents was determined in mice following injection with drug. Blood was taken at various times following treatment and analysed by HPLC with UV detection. […]

DT-diaphorase = DT-diaphorase (Homo sapiens, UniProt P15559); assay: Activation of quinone prodrugs by DT-diaphorase; type: biochemical; conditions: comparable to RH1
Procedure: as §4

HUVEC = assay: Growth inhibition studies using HUVEC; type: cell-based, human
Procedure: as §2, §3

[8] = system: cancer cell growth in vitro; conditions: background; cited from earlier work
K562 cells = assay: In situ ultra violet irradiation of dosed K562 cells, IC50; type: cell-based, human; conditions: K562, in situ, within 2 seconds of exposure; read-out: IC50 after exposure to ultraviolet light
Procedure: Previously, the isomerisation study had been performed ex situ, i.e. in a photochemical reactor. However, it was necessary to illustrate the potential of the process as a real therapy by repeating the isomerization in the presence of the caner cells i.e. in situ. […] Following irradiation, the cells were incubated in the normal way and the IC50 values were determined.
These consisted of i) exposing K562 cells only (i.e. cells which were not dosed with any potential drug candidate) to ultra violet light, ii) preventing K562 cells dosed with drug candidate from being exposed to ultra violet light, and iii) preventing K562 cells only (i.e. cells which were not dosed with any potential drug candidate) from being exposed to ultra violet light. […]

[9] = system: K562 human myelogeneous leukaemia cell line; assay: Cytotoxicity/growth inhibition assay (MTT), K562; type: cell-based; conditions: Homo sapiens, K562; MTT; read-out: K562 IC50
In short: as §1

[10] = Homo sapiens, A2780, read-out: IC50 (nM) A2780

Chain of DT-diaphorase (P15559 whole entry, species assumed): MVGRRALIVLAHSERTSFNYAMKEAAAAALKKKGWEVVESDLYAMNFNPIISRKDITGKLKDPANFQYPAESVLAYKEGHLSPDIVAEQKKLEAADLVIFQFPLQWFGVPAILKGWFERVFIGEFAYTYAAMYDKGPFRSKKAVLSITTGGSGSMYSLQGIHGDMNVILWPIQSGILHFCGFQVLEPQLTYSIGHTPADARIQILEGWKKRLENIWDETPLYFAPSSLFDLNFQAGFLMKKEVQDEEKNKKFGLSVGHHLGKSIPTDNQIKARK

In the case of “cis-combretastatin A-4 [Compound 1, reference compound]”, the “% of cells in G0–G1” value (K562) is reported as 3%, the “% of cells in G2-M” value (K562) is reported as 92% and the “% of cells in S phase” value (K562) is reported as 6%. For the same compound, the “% of cells with DNA content <2 n” value (K562) was 7% and the water solubility [1] was “poor water solubility”.

Work on `COc1ccc(C=Cc2cc(OC)c(OC)c(OC)c2)cc1OC(=O)c1ccncc1` [Compound 97-07] yielded an IC50 ([2]; MTT) of 0.0023 µM, an IC50 (tubulin) of 10 µM and an IC50 (A2780; read-out: A2780 IC50) of 1.47 nM. The “Colchicine % Inhibition” value [3] was 6.6% and 12.3% and the IC50 [4] was 2.78 µM.

For `COC1=CC(=O)C(/C=C\c2cc(OC)c(OC)c(OC)c2)=CC1=O` [Compound 97-96, 2-Methoxy-5-[(Z)-2-(3′,4′,5′-trimethoxyphenyl)-vinyl]-[1,4]benzoquinone], the tumour damage [5] was “extensive damage to the tumours”, the IC50 ([2]; Mus musculus, P388) was 0.57 µM and the IC50 ([2]; Mus musculus, P388, MTT) was 0.57 µM. It also gave an IC50 (tubulin) of under 1.25 µM, an IC50 (A2780; Homo sapiens, A2780, read-out: A2780 IC50) of 190 nM and an IC50 (A2780; [10]) of 190 nM. The IC50 [6] was 0.62 µM, the H596/H460 [6] was 16 and the IC50 [4] was 0.038 µM. The “anti-tumour activity in vivo” value [7] was “active”, the “ability to act as substrate for DT-diaphorase” value (DT-diaphorase) was “good substrates for the enzyme” and the IC50 (HUVEC) was 0.22 µM. For the same compound, the IC50 (HUVEC; Homo sapiens, HUVEC) was 0.23 µM.

For `COc1ccc(/C=C/c2cc(OC)c(OC)c(OC)c2)cc1O` [trans-CA-4, trans-combretastatin A-4, reference compound], the inhibits cell growth [8] is given as “μM range” and the IC50 (K562 cells) is given as 0.002 µM.

`COC1=CC(=O)C(CCc2cc(OC)c(OC)c(OC)c2)=CC1=O` [Compound 98-24] gave an IC50 ([2]; Mus musculus, P388) of 17.1 µM, an IC50 (A2780; [10]) of 1630 nM and an IC50 [6] of 1.95 µM. For the same compound, the H596/H460 [6] was 0.63 and the IC50 [4] was 3.08 µM.

`COc1ccc(C=Cc2cc(OC)c(OC)c(OC)c2)cc1OC(=O)c1ccncc1` [Compound 96-167] showed an IC50 ([2]; MTT) of 0.0008 µM, an IC50 (tubulin) of 9 µM and an IC50 (A2780; read-out: A2780 IC50) of 0.37 nM. The “Colchicine % Inhibition” value [3] was 3.8% and the IC50 (HUVEC; Homo sapiens, HUVEC) was 0.04 µM.

`COc1ccc(/C=C\c2cc(C)c(C)c(C)c2)cc1O` [Compound 28, (Z)-1-(3′,4′,5′-trimethylphenyl)-2-(3″-hydroxy-4″-methoxyphenyl)ethene] showed an IC50 [9] of 0.021 µM, an IC50 (tubulin) of 1.5 µM and a melting point of 60 to 61 °C.

`COc1cc(/C=C\c2ccc(C)c(F)c2)cc(OC)c1OC` [Compound 98-35H] gave an IC50 ([2]; MTT) of 0.00328 µM, an IC50 (tubulin) of 6.25 µM and an IC50 (A2780; read-out: A2780 IC50) of 1.44 nM. For the same compound, the “Colchicine % Inhibition” value [3] was 5% and the IC50 (HUVEC) was 0.016 µM.
